Assay results published in patent US20240409585A1, “MACROCYCLIC IMMUNOMODULATORS” (priority 2021, published 2024).
Bridge positions count the residues as written; N and C are the ends. Square brackets hold non-standard residues; d marks the D form. Peptide text beside a SMILES is read from it. * marks the point of attachment. ξ: configuration not given here. Phe(4-COOH) = N[C@@H](Cc1ccc(C(=O)O)cc1)C(=O)O; Bip = N[C@@H](Cc1ccc(-c2ccccc2)cc1)C(=O)O; Phe(3-Me) = Cc1cccc(C[C@H](N)C(=O)O)c1; Phe(4-F) = N[C@@H](Cc1ccc(F)cc1)C(=O)O; Val(3-OH) = CC(C)(O)[C@H](N)C(=O)O; 4Pal = N[C@@H](Cc1ccncc1)C(=O)O; Cha = N[C@@H](CC1CCCCC1)C(=O)O; Cit = NC(=O)NCCC[C@H](N)C(=O)O; Ile(3ξ) = CCC(C)[C@H](N)C(=O)O; Thr(3ξ) = CC(O)[C@H](N)C(=O)O; NMeNle = CCCC[C@H](NC)C(=O)O; Carboxymethyl = O=C(O)C*; NMeA = CN[C@@H](C)C(=O)O; Dab = NCC[C@H](N)C(=O)O

Biological target: T1, PE-labeled human PD-L1-Ig binding to Jurkat cell line over-expressing human PD-1 (Jurkat-PD-1) (Homo sapiens, UniProt Q15116)
T1 construct: expressed in transfected cells; host or cells: Jurkat
T1 sequence (Q15116 25-288): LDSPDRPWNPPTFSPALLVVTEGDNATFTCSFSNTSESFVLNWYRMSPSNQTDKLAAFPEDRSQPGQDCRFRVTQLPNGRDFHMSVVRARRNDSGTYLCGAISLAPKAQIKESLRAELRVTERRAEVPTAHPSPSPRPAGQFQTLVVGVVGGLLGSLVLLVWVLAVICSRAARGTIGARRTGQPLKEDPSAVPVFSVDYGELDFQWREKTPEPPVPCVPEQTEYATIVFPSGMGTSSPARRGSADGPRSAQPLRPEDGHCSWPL
Experiment: Jurkat-PD-1 Cell Binding High-Content Screening Assay (CBA): Method 1
Details: Jurkat-hPD-1 cells, PE-labeled PD-L1-Ig 20 nM final; read-out: Jurkat HPDL1 PD1 IC50 (uM) (Method 1)

Row | IC50 [µM] | Structure (SMILES)
1 | 0.02 | Cc1cccc(C[C@@H]2NC(=O)[C@H](CC(=O)O)NC(=O)[C@H](Cc3ccc(OCC(=O)O)cc3)NC(=O)[C@H](Cc3ccncc3)NC(=O)CSC[C@@H](C(=O)N[C@@H](CCN)C(N)=O)NC(=O)[C@H](CCC(=O)O)NC(=O)[C@H](C(C)(C)O)NC(=O)[C@H](CC3CCCCC3)NC(=O)[C@H](CCN)NC(=O)[C@@H](CC(C)C)NC(=O)[C@H](C)N(C)C(=O)[C@H](Cc3ccc(C(=O)O)cc3)NC(=O)[C@H](Cc3ccc(-c4ccccc4)cc3)NC(=O)[C@H](Cc3ccc(C(=O)O)cc3)NC2=O)c1 [Compound 2196] ({CH2CO}-[4Pal]Y(Carboxymethyl)D[Phe(3-Me)][Phe(4-COOH)][Bip][Phe(4-COOH)][NMeA][dL][Dab][Cha][Val(3-OH)]EC[Dab]-NH2; thioether N-14)
2 | 0.11 | CC(C)C[C@H]1NC(=O)[C@H](C)N(C)C(=O)[C@H](Cc2ccc(C(=O)O)cc2)NC(=O)[C@H](Cc2ccc(-c3ccccc3)cc2)NC(=O)[C@H](CCC(N)=O)NC(=O)[C@H](Cc2c[nH]c3ccccc23)NC(=O)[C@H](CC(=O)O)NC(=O)[C@H](Cc2ccc(OCC(=O)O)cc2)NC(=O)[C@H](Cc2ccc(OCC(=O)O)cc2)NC(=O)CSC[C@@H](C(=O)N[C@@H](CO)C(N)=O)NC(=O)[C@H](CCC(=O)O)NC(=O)[C@H](C(C)(C)O)NC(=O)[C@H](CC2CCCCC2)NC(=O)[C@H](CCN)NC1=O [Compound 2198] ({CH2CO}-Y(Carboxymethyl)Y(Carboxymethyl)DWQ[Bip][Phe(4-COOH)][NMeA][dL][Dab][Cha][Val(3-OH)]ECS-NH2; thioether N-14)
3 | 0.01 | Cc1cccc(C[C@@H]2NC(=O)[C@H](CC(=O)O)NC(=O)[C@H](Cc3ccc(OCC(=O)O)cc3)NC(=O)[C@H](Cc3ccc(F)cc3)NC(=O)CSC[C@@H](C(=O)N[C@@H](CCN)C(N)=O)NC(=O)[C@H](CCC(=O)O)NC(=O)[C@H](C(C)(C)O)NC(=O)[C@H](CC3CCCCC3)NC(=O)[C@H](CCN)NC(=O)[C@@H](CC(C)C)NC(=O)[C@H](C)N(C)C(=O)[C@H](Cc3ccc(OCC(=O)O)cc3)NC(=O)[C@H](Cc3ccc(-c4ccccc4)cc3)NC(=O)[C@H](Cc3ccc(OCC(=O)O)cc3)NC2=O)c1 [Compound 2200] ({CH2CO}-[Phe(4-F)]Y(Carboxymethyl)D[Phe(3-Me)]Y(Carboxymethyl)[Bip]Y(Carboxymethyl)[NMeA][dL][Dab][Cha][Val(3-OH)]EC[Dab]-NH2; thioether N-14)
4 | 0.01 | Cc1cccc(C[C@@H]2NC(=O)[C@H](CC(=O)O)NC(=O)[C@H](Cc3ccc(OCC(=O)O)cc3)NC(=O)[C@H](Cc3ccncc3)NC(=O)CSC[C@@H](C(=O)N[C@@H](CCN)C(N)=O)NC(=O)[C@H](CO)NC(=O)[C@H](C(C)(C)O)NC(=O)[C@H](CC3CCCCC3)NC(=O)[C@H](CCN)NC(=O)[C@@H](CC(C)C)NC(=O)[C@H](C)N(C)C(=O)[C@H](CCCNC(N)=O)NC(=O)[C@H](Cc3ccc(-c4ccccc4)cc3)NC(=O)[C@H](Cc3ccc(OCC(=O)O)cc3)NC2=O)c1 [Compound 2201] ({CH2CO}-[4Pal]Y(Carboxymethyl)D[Phe(3-Me)]Y(Carboxymethyl)[Bip][Cit][NMeA][dL][Dab][Cha][Val(3-OH)]SC[Dab]-NH2; thioether N-14)
5 | 0.5 | Cc1cccc(C[C@@H]2NC(=O)[C@H](CC(=O)O)NC(=O)[C@H](Cc3ccc(C(=O)O)cc3)NC(=O)[C@H](C(C)O)NC(=O)CSC[C@@H](C(=O)N[C@H](C(N)=O)C(C)(C)O)NC(=O)[C@H](CO)NC(=O)[C@H](C(C)(C)O)NC(=O)[C@H](CC3CCCCC3)NC(=O)[C@H](CCN)NC(=O)[C@@H](CC(C)C)NC(=O)[C@H](C)N(C)C(=O)[C@H](Cc3ccc(OCC(=O)O)cc3)NC(=O)[C@H](Cc3ccc(-c4ccccc4)cc3)NC(=O)[C@H](Cc3ccc(OCC(=O)O)cc3)NC2=O)c1 (stereo partly drawn) [Compound 2202] ({CH2CO}-[Thr(3ξ)][Phe(4-COOH)]D[Phe(3-Me)]Y(Carboxymethyl)[Bip]Y(Carboxymethyl)[NMeA][dL][Dab][Cha][Val(3-OH)]SC[Val(3-OH)]-NH2; thioether N-14)
6 | 0.01 | CC(=O)NCCCC[C@@H]1NC(=O)[C@H](C(C)C)NC(=O)[C@H](CC2CCCCC2)NC(=O)[C@H](CCN)NC(=O)[C@@H](CC(C)C)NC(=O)[C@H](C)N(C)C(=O)[C@H](CCC(N)=O)NC(=O)[C@H](Cc2ccc(-c3ccccc3)cc2)NC(=O)[C@H](Cc2ccc(OCC(=O)O)cc2)NC(=O)[C@H](Cc2cccc(C)c2)NC(=O)[C@H](CC(=O)O)NC(=O)[C@H](Cc2ccc(OCC(=O)O)cc2)NC(=O)[C@H](Cc2ccncc2)NC(=O)CSC[C@@H](C(=O)N[C@@H](CCN)C(N)=O)NC1=O [Compound 2203] ({CH2CO}-[4Pal]Y(Carboxymethyl)D[Phe(3-Me)]Y(Carboxymethyl)[Bip]Q[NMeA][dL][Dab][Cha]VK(Ac)C[Dab]-NH2; thioether N-14)
7 | 0.01 | CCC(C)[C@@H]1NC(=O)[C@H](Cc2ccc(-c3ccccc3)cc2)NC(=O)[C@H](C(C)C)NC(=O)[C@H](Cc2c[nH]c3ccccc23)NC(=O)[C@H](CC(=O)O)NC(=O)[C@H](Cc2ccc(OCC(=O)O)cc2)NC(=O)[C@H](Cc2cnc[nH]2)NC(=O)CSC[C@@H](C(=O)N[C@@H](CCN)C(N)=O)NC(=O)[C@H](CO)NC(=O)[C@H](C(C)(C)O)NC(=O)[C@H](CC2CCCCC2)NC(=O)[C@H](CCN)NC(=O)[C@@H](CC(C)C)NC(=O)[C@H](C)N(C)C1=O (stereo partly drawn) [Compound 2204] ({CH2CO}-HY(Carboxymethyl)DWV[Bip][Ile(3ξ)][NMeA][dL][Dab][Cha][Val(3-OH)]SC[Dab]-NH2; thioether N-14)
8 | 0.06 | CCCC[C@H]1C(=O)N[C@@H](Cc2ccc(C(=O)O)cc2)C(=O)N[C@@H](CC(=O)O)C(=O)N[C@@H](Cc2cccc(C)c2)C(=O)N[C@@H](Cc2ccc(C(=O)O)cc2)C(=O)N[C@@H](Cc2ccc(-c3ccccc3)cc2)C(=O)N[C@@H](Cc2ccc(C(=O)O)cc2)C(=O)N(C)[C@@H](C)C(=O)N[C@H](CC(C)C)C(=O)N[C@@H](CCN)C(=O)N[C@@H](CC2CCCCC2)C(=O)N[C@@H](C(C)(C)O)C(=O)N[C@@H](CO)C(=O)N[C@H](C(=O)N[C@@H](CCN)C(N)=O)CSCC(=O)N1C [Compound 2205] ({CH2CO}-[NMeNle][Phe(4-COOH)]D[Phe(3-Me)][Phe(4-COOH)][Bip][Phe(4-COOH)][NMeA][dL][Dab][Cha][Val(3-OH)]SC[Dab]-NH2; thioether N-14)
9 | 0.04 | CCCC[C@H]1C(=O)N[C@@H](Cc2ccc(C(=O)O)cc2)C(=O)N[C@@H](CC(=O)O)C(=O)N[C@@H](Cc2c[nH]c3ccccc23)C(=O)N[C@@H](C(C)C)C(=O)N[C@@H](Cc2ccc(-c3ccccc3)cc2)C(=O)N[C@@H](C(C)O)C(=O)N(C)[C@@H](C)C(=O)N[C@H](CC(C)C)C(=O)N[C@@H](CCN)C(=O)N[C@@H](CC2CCCCC2)C(=O)N[C@@H](C(C)C)C(=O)N[C@@H](C(C)O)C(=O)N[C@H](C(=O)N[C@@H](CCN)C(N)=O)CSCC(=O)N1C (stereo partly drawn) [Compound 2206] ({CH2CO}-[NMeNle][Phe(4-COOH)]DWV[Bip][Thr(3ξ)][NMeA][dL][Dab][Cha]V[Thr(3ξ)]C[Dab]-NH2; thioether N-14)
